Laboratory results from patent publication US10913068B2, “Testing device, microfluidic chip and nucleic acid testing method” (Nanyang Technological University, priority 2015, dated 2021).
Where “and” joins values, the source holds several entries; their conditions need not be identical. Equal entries are not always repeated. Where two headings read alike, the source gives them in different places.

How the values were obtained:
ALT mRNA [1] = details: for mean Ct (± S.D.), ALT: 3× dosage
Experimental: (§1) A short-term (5 days) preclinical drug toxicity experiment was performed on common black laboratory mice (Strain name: C57BL/6J; Age: 5-7 weeks). All experiments were performed in accordance with the National Institutes of Health Guide for the care and use of laboratory animals (NIH Publications No. 80-23, revised 1996) and conducted after approval by the Institutional Animal Care and Use Committee of Houston Methodist Research Institute (HMRI).
(§2) A total of eight mice were divided into two equal groups, with one mouse in each group designated as the control and the remaining three subjected to drug treatment. […] The drug was administered through intraperitoneal route, with the first group having a single dose administered on the 1st day only; and the second group having 3 doses administered on the 1st, 3rd and 5th days. The animals were subsequently euthanized following standard carbon dioxide anaesthesia procedure on the 5th day after final drug administration. The mouse liver tissues were thereafter silated, and cut into equal small pieces (˜20-30 mg) and stored in RNAlater RNA Stabilization Reagent (QIAGEN®, USA) at 4° C. to prevent RNA degradation.
(§3) Once the purified mRNA had been extracted from the liver tissue samples, 30 μL of the purified mRNA extract (i.e. elution buffer with the microbeads) was collected in an EPPENDORF® tube containing the following RT-PCR composition: 75 μL 2× SYBR Green RT-PCR reaction mix (BIORAD®, Singapore), 3.0 μL iSCRIPT™ One-Step RT-PCR reverse transcriptase (BIORAD®, Singapore) and 42 μL nuclease-free water. This 150 μL final RT-PCR assay was subsequently transferred from the EPPENDORF® tube into a 250 μL HAMILTON® glass syringe connected to the RT-PCR microfluidic chip via a 1/32″ OD tubing.
(§4) The chip-compatible thermal cycler was based on the open-source OpenPCR® (Chai Biotechnologies, USA) platform, using a custom-designed aluminium metal block for contact-based thermal cycling and an ARDUINO® microcontroller for precise temperature control (see FIG. 17—schematic diagram 1700 illustrating the multiplex microfluidic real-time RT-PCR setup).
(§5) To provide a benchmark reference to the chip disclosed herein, the same RT-PCR assays (with addition of forward/reverse primers at 0.5 μM concentration) were amplified separately in EPPENDORF® tubes on a conventional CFX96 TOUCH™ Real-Time PCR Detection System (BIORAD®, USA).
(§6) The thermal cycling process was as follows: 70° C. for 2 mins to allow dehybridization of the captured mRNA from the microbeads, followed by 50° C. for 10 minutes for reverse transcription, subsequently with an initial denaturation step of 95° C. for 5 mins and finally 35 cycles of PCR, comprising two stages: denaturation at 95° C. for 10 s and annealing/extension at 55° C. for 30 s.
(§7) To enable simultaneous fluorescent detection of amplified cDNA for a fully-quantitative methodology, the inventors developed an image capturing system embodying a camera module with blue excitation LEDs to be mounted on the chip-compatible thermal cycler disclosed herein (FIG. 19—RT-PCR and fluorescent detection setup 1900). A 3MP CMOS camera with mounted 550 nm longpass optical filter (ISLAND OPTICAL SYSTEMS®, Singapore) was fitted onto a black opaque acrylic frame with a 470 nm blue LED module (IORODEO®, USA) to provide an excitation source for the SYBR Green 1 fluorescent dye present in the RT-PCR assay. The blue LED module was affixed at an angle of ˜45° to the plane of the microfluidic chip to minimize excitation light interference on the captured light pathway of the camera unit.

[2] = tested on: β-actin mRNA (housekeeping gene); details: 3× dosage; conventional qPCR machine CFX96 Touch; control 22.93 ± 0.11
Experimental: as §1, §2, §3, §4, §5, §6, §7

AST mRNA [3] = details: for mean Ct (± S.D.), AST: 3× dosage
Experimental: as §1, §2, §3, §4, §5, §6, §7

ALT mRNA [4] = details: mouse liver tissue
Experimental: as §1, §2
(§8) A liver tissue sample, weighing approximately 20-30 mg, was loaded directly into the tissue lysis chamber. The tissue sample was secured within the chamber when the tissue microhomogenizer attachment was fitted into the opening of the lysis chamber. Subsequently, 250 μL Lysis/Binding buffer was loaded into another 250 μL glass syringe (see FIG. 16, Sample Inlet), and actuated into the tissue lysis chamber at a flow rate of 200 μL/min. For tissue lysis, the microhomogenizer attachment was activated for ˜1 min to allow the liver tissue to be shredded and homogenized. After the completion of tissue lysis, the unwanted tissue debris and supernatant were removed by the micro-pillars as the homogenized tissue lysate was actuated into the mixing chamber, where the lysate was mixed with the microbeads for ˜8 mins to allow for mRNA binding.
(§9) The purified mRNA from each mouse liver tissue sample was collected in an EPPENDORF® tube preloaded with an RT-PCR master mix. To validate the efficacy of our sample preparation microfluidic chip, purified mRNA solutions extracted using our microfluidic chip was tested for their purity using the NANODROP™ 2000 (THERMOSCIENTIFIC®, Singapore), to ensure an A260/280 ratio of ˜2.0-2.2 before proceeding to the subsequent downstream applications of RT-PCR and nucleic acid detection.
as §3
as §4, with “setup). […]” for “setup).”

[5] = tested on: β-actin mRNA (housekeeping gene); details: after 1× and 3× drug dosage (200 mg/kg body wt.); mouse liver tissue
Experimental: as §1, §2, §8, §9, §3
as §4, with “setup). […]” for “setup).”

AST mRNA [6] = details: mouse liver tissue
Experimental: as §1, §2, §8, §9, §3
as §4, with “setup). […]” for “setup).”

[7] = 3× dosage vs untreated control, Livak ΔΔCt method, normalized to β-actin, microfluidic data
[8] = 1× drug dosage (200 mg/kg body wt., intraperitoneal, day 1 only)
[9] = 3× drug dosage (200 mg/kg body wt., intraperitoneal, days 1, 3, 5), normalized to untreated control

O=P1(N(CCCl)CCCl)NCCCO1 (stereo not drawn) [cyclophosphamide]
normalized fold change (up-regulation) for ALT (ALT mRNA [1]; [7]): 1.31 fold | mean Ct (± S.D.), ALT (ALT mRNA [1]; Microfluidic Chip, control 28.8 ± 0.2): 28.5 and 28.5 ± 0.3 | mean Ct (± S.D.), ALT (ALT mRNA [1]; conventional qPCR machine CFX96 Touch, control 27.28 ± 0.10): 26.75 ± 0.07 | mean Ct (± S.D.), β-actin [2]: 23.02 ± 0.08 | normalized fold change (up-regulation) for AST (AST mRNA [3]; [7]): 1.62 fold | mean Ct (± S.D.), AST (AST mRNA [3]; Microfluidic Chip, control 20.5 ± 0.2): 19.9 and 19.9 ± 0.2 | mean Ct (± S.D.), AST (AST mRNA [3]; conventional qPCR machine CFX96 Touch, control 20.07 ± 0.02): 19.34 ± 0.05 | difference in final cDNA concentration (ALT) compared to untreated control (ALT mRNA [4]; [8]): no significant difference | increase in final cDNA concentration for ALT (ALT mRNA [4]; [9]): 33.3% | β-actin mRNA expression levels [5]: remained relatively unchanged | difference in final cDNA concentration (AST) compared to untreated control (AST mRNA [6]; [8]): no significant difference | increase in final cDNA concentration for AST (AST mRNA [6]; [9]): 58.7%
